# Publication PMC2639705, “Two Chromogranin A-Derived Peptides Induce Calcium Entry in Human Neutrophils by Calmodulin-Regulated Calcium Independent Phospholipase A2” (PLoS ONE, 2009)
# “Also recorded” adds a separate entry of the source. Where two headings read alike, the source gives them in different places. Positions of bridges follow the written chain, without caps; N, C: chain ends. No end group written: not given here. rhodamine = not defined here
# Assays:
# PMNs [1] = experiment: HPLC and NanoLC-MS/MS proteomic analysis of PMN secretions induced by CHR and CAT; conditions: trypsin, protein threshold 1 peptide score > 52 or at least 2 peptides with score >20
# iPLA2 = iPLA2 activity assay (modified cPLA2 assay kit); assay type: biochemical, human; conditions: 20 µM CHR, 20 µM CAT, 1 µM CMZ or 50 µM W7, 30 min at 37°C; absorbance 405 nm per mg protein; two experiments in triplicate
# Procedure: C) iPLA2 activity assay: Stimulation of iPLA2 activity after treatment by 20 µM CHR or 20 µM CAT for 30 min at 37°C and comparison with the effects of two CaM-binding factors (1 µM CMZ, 50 µM W7) and one iPLA2 inhibitor (25 µM BEL). Activity of iPLA2 is expressed as the absorbance (Abs/mg of protein) at λ405 nm.
# PMNs (3.10^8) were collected, sonicated 3 times for 10 s with a 15 s break between cycles, and centrifuged at 15,000× g for 20 min at 4°C. The supernatant was removed and kept on ice. After determination of the protein concentration (Bradford assay), iPLA2 activity measurement was obtained in presence of different peptide concentrations using the cPLA2 assay kit, according to the modified method previously reported (cPLA2 assay kit, Caymen chemical), [36]. Results were from two similar experiments, each performed in triplicates.
# PMNs [2] = experiment: Time-lapse intracellular Ca2+ imaging (Fura-2), with SOC/ARC blockers and iPLA2/PLA2 inhibitors; assay type: cell-based, human; conditions: for Ca2+ influx induced by CaM antagonists: 30 µM W7 or 1 µM CMZ
# PMNs [3] = experiment: Confocal microscopy, uptake of rhodamine-labelled peptides into PMNs; assay type: cell-based, human; conditions: 20 µM rhodamine-labelled peptide, 2 min, PBS pH 7.4, room temperature, confocal microscopy after paraformaldehyde fixation
# Procedure: PMNs (1.10^6/mL) were incubated 2 min at room temperature (RT) with rhodamine-labelled peptides (20 µM) in Phosphate Buffered Saline consisting of 10.5 mM KH2PO4, 30 mM Na2HPO4, 0.154 M NaCl, pH 7.4, washed and subsequently centrifuged by cytospins of 1–2.10^5 isolated PMNs onto glass slides (300 rpm, 10 min, RT). Cytospins were fixed with 4% (v/v) paraformaldehyde in PBS at RT for 20 min, then incubated with Draq-5 (dilution1∶500, Biostatus Limited., Leicestershire, UK) for 15 min. Stained cells were monitored with a Zeiss LSM 510 laser scanning microscope (Zeiss, Iena, Germany) equipped with a Planapo oil immersion objective (×63, numerical aperture 1.4).
# human PMNs = experiment: Flow cytometry, Ca2+ influx in Fluo-3-loaded PMNs; assay type: cell-based; conditions: for Ca2+ influx: human PMNs, Fluo-3, 20 µM peptide (or tryptic digest of 20 µM CAT/CHR), presence of extracellular Ca2+ (1 mM; 1.1 mM CaCl2 at t = 620 s), at least triplicates
# SOCs = system: SOCs; parameters: method as in PMID 15280576, PMID 15951181, PMID 17003039; conditions: ref [42]–[44]; cited from earlier work
# pancreatic beta-cells = conditions: ref [2]; cited from earlier work
# Source text: Chromogranin A (CgA) is a well-studied member of the chromogranin/secretogranin family, present in secretory cells of the nervous, endocrine and immune systems. CgA was the first chromogranin to be characterized as an acidic protein co-stored and co-released with the catecholamine hormones from the chromaffin cells of the adrenal medulla. […] Numerous endogenous cl ...
# calmodulin (CaM) = experiment: Surface Plasmon Resonance, CaM binding to immobilized peptides; conditions: pH 6.5
# Procedure: Figure 5 Interaction of CHR and CAT with calmodulin (CaM). A) Fluorescence confocal microscopy of PMNs after incubation during 120 s with 20 µM rhodamine-labeled peptides (Rho-CHR or Rho-CAT). Control peptide: 20 µM rhodamine labeled Hippocampal Cholinergic Neurostimulating Peptide (Rho-HCNP). The PMNs nuclei were labeled with Draq-5. B) Alignment of the CHR and CAT sequences with two CaM binding motifs 1-8-14 B and 1-5-10. The alignment has been obtained manually so that hydrophobic residues occupy invariant positions shown with boldface letters. The net positive charge is also indicated. C) (1) Interactions between CaM, CAT and CHR by Surface Plasmon Resonance (SPR) Peptides were immobilized on a CM5 Biacore chip using amine-coupling chemistry. CaM (5 µM) was added at arrow and allowed to stabilize for 10 min. Dissociation by washing was recorded for the following 10 min. All measurements were performed at 20°C. The resulting sensorgrams were analyzed using BIAevaluation Software. (2) Calmodulin-Affinity Chromatography of CHR and CAT. The retained and eluted peptides were immunodetected by dot blot with anti-CHR (monoclonal anti-CgA47–68) and anti-CAT (polyclonal anti-CgA344–364). […]
# Experiments were conducted on a Biacore 3000™ (GE Healthcare) and peptides were immobilized on a CM5 Biacore chip using amine-coupling. […] Sensorgrams were analyzed by using BIAevaluation Software.
compound,measurement,setting,value
"Castestatin (SSMKLSFRARAYGFRGPGPQL; Catestatin; UniProt P10645 370-390, looked up)",Protein identified in PMN secretion (Protein name),"PMNs [1]; sample Castestatin_1, Mascot",Protein S100-A9 - Homo sapiens (Human); also recorded: Protein S100-A12 - Homo sapiens (Human)
same,Protein identified in PMN secretion (Protein name),"PMNs [1]; sample Castestatin_6, Mascot","Actin, cytoplasmic 1 - Homo sapiens (Human)"
same,Protein identified in PMN secretion (Protein name),"PMNs [1]; sample Castestatin_7, Mascot","Actin, cytoplasmic 1 - Homo sapiens (Human)"
same,Protein identified in PMN secretion (Protein name),"PMNs [1]; sample Castestatin_8, Mascot",Hemoglobin subunit alpha - Homo sapiens (Human)
same,Protein identified in PMN secretion (Protein name),"PMNs [1]; sample Castestatin_9, Mascot",Hemoglobin subunit beta - Homo sapiens (Human)
same,Protein identified in PMN secretion (Protein name),"PMNs [1]; sample Castestatin_10, Mascot",High mobility group protein B2 - Homo sapiens (Human); also recorded: Hemoglobin subunit beta - Homo sapiens (Human)
same,Protein identified in PMN secretion (Protein name),"PMNs [1]; sample Castestatin_11, Mascot",Heterogeneous nuclear ribonucleoproteins A2/B1 - Homo sapiens (Human); also recorded: Phosphatidylethanolamine-binding protein 1 - Homo sapiens (Human); also recorded: Heterogeneous nuclear ribonucleoprotein A1 - Homo sapiens (Human); also recorded: Filamin-A - Homo sapiens (Human); also recorded: Low affinity immunoglobulin gamma Fc region receptor III-B precursor - Homo sapiens (Human); also recorded: Alpha-1-acid glycoprotein 1 precursor - Homo sapiens (Human); also recorded: Haptoglobin precursor [Contains: Haptoglobin alpha chain; Haptoglobin beta chain] - Homo sapiens (Human); also recorded: SH3 domain-binding glutamic acid-rich-like protein - Homo sapiens (Human)
"NCCCCCCNS(=O)(=O)c1cccc2c(Cl)cccc12 [W7, N-(6-aminohexyl)-5-chloro-l-naphthalenesulfonamide]",stimulation of iPLA2 enzymatic activity in PMNs,iPLA2,stimulated
same,Ca2+ influx induced by CaM antagonists,"PMNs [2]; PMNs, Fura-2, 37°C",induced longer lasting rises in influx
"rhodamine-labeled Hippocampal Cholinergic Neurostimulating Peptide (HCNP): control peptide, rhodamine-labeled Hippocampal Cholinergic Neurostimulating Peptide (HCNP) (rhodamine-PVDLSKWSGPL; reading uncertain; UniProt P30086 2-12, looked up)",detection in PMN cytoplasm (uptake),PMNs [3],not detected in the cytoplasm
same,Ca2+ influx induced by labelled control peptide,"human PMNs; PMNs, data not shown, method and concentration not stated",unable to induce Ca^2+ influx into PMNs
"NCCOB(c1ccccc1)c1ccccc1 [2-APB, 2-aminoethyl diphenylborinate]",inhibition of AA-induced Ca2+ influx,PMNs [2],insensitive to 2-APB
same,inhibition of CAT-induced Ca2+ entry,PMNs [2],completely blocked the entry of extracellular Ca^2+; also recorded: inhibits completely the calcium entry; also recorded: abolished the transient Ca^2+ influx induced by CHR or CAT similarly to 2-APB
same,inhibition of CHR-induced Ca2+ entry,PMNs [2],completely blocked the entry of extracellular Ca^2+; also recorded: inhibits completely the calcium entry; also recorded: abolished the transient Ca^2+ influx induced by CHR or CAT similarly to 2-APB
same,suppression of CMZ-induced Ca2+ influx,PMNs [2],significantly suppressed
same,suppression of W7-induced Ca2+ influx,PMNs [2],significantly suppressed
"Clc1ccc(C(c2ccc(Cl)cc2)n2cc[n+](CC(OCc3ccc(Cl)cc3Cl)c3ccc(Cl)cc3Cl)c2)cc1 (stereo not shown) [CMZ, calmidazolium]",stimulation of iPLA2 enzymatic activity in PMNs,iPLA2,stimulated
same,Ca2+ influx induced by CaM antagonists,"PMNs [2]; PMNs, Fura-2, 37°C",induced longer lasting rises in influx
same,direct activation of SOCs,SOCs,may directly activate SOCs without the release of intracellular Ca^2+ stores
"[Cl][Gd]([Cl])[Cl] [Gd^3+, gadolinium chloride]",inhibition of AA-induced Ca2+ influx,PMNs [2],inhibited by gadolinium chloride (Gd^3+)
"O=C1O/C(=C/Br)CCC1c1cccc2ccccc12 (stereo not shown) [BEL, Bromoenol lactone]",inhibition of CAT-induced Ca2+ entry,"PMNs [2]; PMNs, Fura-2, 20 µM CAT, 2.5 mM CaCl2, 100 µM 2-APB (2 min), 25 µM BEL (30 min) or 10 µM BPB (10 min) before peptide",abolished the transient Ca^2+ influx
same,inhibition of CHR-induced Ca2+ entry,"PMNs [2]; PMNs, Fura-2, 20 µM CHR, 2.5 mM CaCl2, 100 µM 2-APB (2 min), 25 µM BEL (30 min) or 10 µM BPB (10 min) before peptide",abolished the transient Ca^2+ influx
same,suppression of CMZ-induced Ca2+ influx,"PMNs [2]; PMNs, Fura-2, 37°C, 1 µM CMZ, 25 µM BEL (30 min), 10 µM BPB (10 min) or 100 µM 2-APB (2 min) before",significantly suppressed
same,suppression of W7-induced Ca2+ influx,"PMNs [2]; PMNs, Fura-2, 37°C, 30 µM W7, 25 µM BEL (30 min), 10 µM BPB (10 min) or 100 µM 2-APB (2 min) before",significantly suppressed
"Pancreastatin (AAPGWPEDGAGKMGAEEAKPPEGKGEWAHSRQEEEEMARAPQVLFRG; Pancreastatin; UniProt P05059 266-312, looked up) [CgA-derived peptide (bCGA248–293)]",effect on glucose-evoked insulin secretion,pancreatic beta-cells,able to inhibit the glucose-evoked insulin secretion from pancreatic beta-cells
"rhodamine-labeled CAT: CAT conjugated with 5(6)-carboxytetramethyl rhodamine at the N-terminal extremity ({5(6)‑carboxytetramethylrhodamine}-SSMKLSFRARAYGFRGPGPQL; UniProt P10645 370-390, looked up)",detection in PMN cytoplasm (uptake),PMNs [3],detected in the cytoplasm
"NSPMNKGDTEVMK [CgA4–16, peptide derived from the N-terminal CgA domain (…)]",Ca2+ influx,human PMNs,failed to affect the Ca^2+ influx
"CCCCC/C=C\C/C=C\C/C=C\C/C=C\CCCC(=O)O [AA, Arachidonic Acid]",Ca2+ influx induced by AA,"PMNs [2]; PMNs, Fura-2, 50 µM AA, 2.5 mM CaCl2",calcium influx induced by 50 µM AA
CIVEVISDTLSKPSPMPVSKEC (disulfide 1-22 (inferred)) [CgA17–40],Ca2+ influx,human PMNs,failed to affect the Ca^2+ influx
scrambled CAT: scrambled CAT peptide (SLPRRQLPSSAGMRGGKFAYF),interaction with CaM by SPR,calmodulin (CaM),inactive
"ALQGAKERTHQQ [CgA65–76, the natural peptide CgA65–76 (…)]",Ca2+ influx,human PMNs,failed to affect the Ca^2+ influx
